Test results reported in patent publication US20240189388A1, “MEDICATION FOR TREATING LUNG INJURY” (SHANGHAI SEME CELL TECHNOLOGY CO., LTD., priority 2021, published 2024).

Tests used:
[1] = tested on: LPS-induced acute respiratory distress syndrome; experiment: BALF neutrophil count and percentage, LPS-induced ARDS rat model (Example 1); assay type: in vivo, SD rats
Protocol: Normal adult male SD rats were randomly grouped, 5 rats in each group. The animals were intraperitoneally injected and nebulized in the trachea with lipopolysaccharides (LPS) as a modeling reagent, as shown in Table 1:
The animals in groups G1 and G2 were intraperitoneally injected with lipopolysaccharides (0.8 mg/kg. body weight) according to their body weight, anesthetized by inhaling isoflurane after 16 h of the intraperitoneal injection, and nebulized with lipopolysaccharides (5 mg/kg. body weight) in the trachea.
Intraperitoneal injection with lipopolysaccharides (LPS): According to the body weight of the animals, each animal was administered with lipopolysaccharides by intraperitoneal injection with a disposable micro syringe.
Intratracheal nebulization with lipopolysaccharides (LPS): Each animal was anesthetized by inhaling isoflurane and then fixed on a rat fixator placed at a 45° angle, the root of the animal's tongue was pressed by a small animal anesthesia laryngoscope to expose the glottis, a pulmonary micro liquid nebulizer needle (blunt) that extracted a quantitative solution of LPS was gently inserted into the trachea, then the piston was quickly pushed to atomize the LPS solution into the lung, the needle was quickly pulled out, and the animal was taken down from the fixator and rotated left and right with its head facing upwards to distribute LPS as evenly as possible in each lung lobe.
The animals were administered for the first time within 1 h after the intratracheal nebulization with the modeling reagent (LPS), and the second time after 24 h.
The day after the end of the second administration (48 h after the intratracheal nebulization with the modeling reagent).
Collection of samples: On the day after the second administration, all groups of animals were euthanized with CO2, then their abdominal cavities were opened, and their abdominal arteries were cut for bleeding. […] Precipitated cells were re-suspended with 1 ML PBS, and total cells in the BALF were counted by a blood cell counter and trypan blue staining. […]

[2] = tested on: rats with a lung injury; experiment: Inflammatory factors in serum (Example 2); assay type: in vivo, Sprague-Dawley rats
Protocol: (§1) D0: The animals in the normal control group were intraperitoneally injected with sodium chloride injection (1 ml/kg), while the animals in other groups were intraperitoneally injected with lipopolysaccharides (1 mg/kg, 1 ml/kg).
(§2) D1: After 16 h (+30 min) of intraperitoneal injection, the animals were anesthetized by inhaling isoflurane. The animals in the normal control group were nebulized with sodium chloride injection (1 mL/kg) in the trachea, while the animals in other groups were nebulized with lipopolysaccharides (5 mg/kg, 1 ml/kg) in the trachea.
(§3) Administration frequency and duration: On D1, the animals were administered for the first time within 3 h after the intratracheal nebulization with the modeling reagent (LPS); and on D2, the animals were administered for the second time. The interval between the two administrations was about 24 h (+20 min).
Collection of blood sample: About 1 mL of abdominal aortic blood of each animal was collected into a centrifuge tube containing a separation gel and a coagulant.
Treatment of blood sample: After collection, the blood sample was stored and transported at room temperature, and centrifuged within 2 hours under the conditions: 3000 g, room temperature, and 10 minutes. The serum after centrifugation was transferred to a new labeled centrifuge tube and divided into 2 tubes, which were temporarily stored below −60° C. At the end of the experiment, inflammatory factors (IL-1β, IL-6, IL-10, and TNF-α) in the serum were tested by a reagent kit. The blood sample was managed by the Watson LIMS7.5 system.

[3] = tested on: rats with a lung injury; experiment: BALF white blood cell count and classification (Example 2); assay type: in vivo, Sprague-Dawley rats; settings: D3, 0.75 mg/kg i.v. twice, 6 rats, x ± SD
Protocol: as §1, §2, §3
Sample collection: After the animals were euthanatized, the skin and tissues of the neck and chest were incised to expose the trachea, bronchi, and lungs. The bronchi in the right lung were separated and ligated. A suture was threaded under the trachea, a ½ incision was made between cartilage rings of the trachea at an appropriate position under the thyroid cartilage, a trachea cannula was slowly inserted along the incision into the airway to a left bronchus, and the inserted cannula was fastened with the trachea by using the threaded suture at an appropriate position in a centripetal direction of the incision. 3 ml of PBS buffer was slowly injected with a syringe for bronchoalveolar lavage. The lavage was repeated 3 times, with each remaining for about 10 seconds. The lavage solution was collected into a centrifuge tube of appropriate capacity.
BALF treatment: The collected lavage solution was centrifuged at 4° C. and approximately 2000 rpm for 20 min. The supernatant was stored below −60° C. for later use. The precipitate was re-suspended with I mL of PBS buffer for count and classification of white blood cells. The supernatant after BALF centrifugation was managed as a sample by using a Watson LIMS7.5 system.
Classification and test of white blood cells: White blood cells in the re-suspended BALF were counted and classified by a fully automatic blood cell analyzer.

[4] = tested on: rats with a lung injury; experiment: Histopathological examination of lung, 5-grade method (Example 2); assay type: in vivo, Sprague-Dawley rats
Protocol: as §1, §2, §3
General observation: All animals in each group (including dead animals) were dissected and their tissues were stored. The animals that died during non-working hours were stored in the 2° C.-8° C. refrigerator and dissected as soon as possible within 24 hours. After dissecting and retaining tissues, animal carcasses were disposed of as medical waste.
During the autopsy, whether the lungs, trachea, and bronchi of the animals were abnormal were observed. The middle lobe of the right lung was incised and weighed for calculating a wet/dry weight ratio. The remaining tissues and bronchi of the right lung were fixed in a 10% neutral buffered formalin solution, followed by paraffin embedding, slicing, section preparation, and HE staining for pathological morphological observation of lung tissues. Standard terminologies were used for diagnosis and classification, and the lung tissues were pathologically examined by a 5-grade method (slight, mild, moderate, obvious, and severe).

[5] = G2 mean, 5 rats, 1 mg/kg caudal vein injection twice, 48 h after LPS nebulization
[6] = D3, 0.75 mg/kg i.v. twice, 6 rats, x ± SD
[7] = test sample group vs model control group
[8] = ++ = mild, test sample group, 6 rats, 0.75 mg/kg
[9] = +++ = moderate, test sample group, 6 rats, 0.75 mg/kg
[10] = ++++ = obvious, test sample group, 6 rats, 0.75 mg/kg
[11] = +++++ = severe, test sample group, 6 rats, 0.75 mg/kg
[12] = − = no lesion, test sample group, 6 rats, 0.75 mg/kg

## Annexin A5
[1]; G2 compared to model control group G1
  Effect on count of neutrophils (Neu cells) in the BALF: significantly inhibited
[1]; [5]
  Neu cell counts in the BALF: 7.03 *10^6
  Percentages of Neu cells in the BALF: 36.80%
[2]; [6]
  IL-1β in serum: 15.41 ± 25.29 pg/mL
  IL-6 in serum: 0.00 ± 0.00 pg/mL
  IL-10 in serum: 18.35 ± 9.84 pg/mL
  TNF-α in serum: 0.00 ± 0.00 pg/mL
[2]; [7]
  Change of inflammatory factors in the serum: significantly decreased to similar levels as the normal control group
[3]
  Lymphocytes in BALF: 0.58 ± 0.22 ×10^9 cells/L
  Monocytes in BALF: 0.38 ± 0.47 ×10^9 cells/L
  Neutrophils in BALF: 2.54 ± 2.07 ×10^9 cells/L
  White blood cell in BALF: 3.63 ± 2.05 ×10^9 cells/L
[4]; 0.75 mg/kg i.v. twice, D3
  Bleeding of the lung under a microscope: mildly
  Infiltration of the lung by inflammatory cells under a microscope: moderately to obviously
  Proliferation of alveolar epithelial cells under a microscope: mild to moderate
[4]; [8]
  Degree of alveolar wall thickening lesion: number of animals with grade ++: 3
  Degree of inflammatory cell infiltrating lesion: number of animals with grade ++: 0
[4]; [9]
  Degree of alveolar wall thickening lesion: number of animals with grade +++: 3
  Degree of inflammatory cell infiltrating lesion: number of animals with grade +++: 2
[4]; [10]
  Degree of alveolar wall thickening lesion: number of animals with grade ++++: 0
  Degree of inflammatory cell infiltrating lesion: number of animals with grade ++++: 4
[4]; [11]
  Degree of alveolar wall thickening lesion: number of animals with grade +++++: 0
  Degree of inflammatory cell infiltrating lesion: number of animals with grade +++++: 0
[4]; in all rats, vs model
  Change of inflammatory cell infiltrating lesions: changed from severe and obvious to obvious and moderate
[4]; in half of the rats, vs model
  Change of alveolar wall thickness: changed from moderate to mild
[4]; [7]
  Degree of lung lesions: lower than that of the model control group
[4]; [12]
  Degree of alveolar wall thickening lesion: number of animals with grade −: 0
  Degree of inflammatory cell infiltrating lesion: number of animals with grade −: 0
